molecular target: T1, hDAT (Homo sapiens, UniProt Q01959); experiment: Drug-induced release of preloaded [3H]DA from HEK-hDAT cells; format: cell-based; conditions: [3H]DA release
T1 sequence (Q01959 whole entry): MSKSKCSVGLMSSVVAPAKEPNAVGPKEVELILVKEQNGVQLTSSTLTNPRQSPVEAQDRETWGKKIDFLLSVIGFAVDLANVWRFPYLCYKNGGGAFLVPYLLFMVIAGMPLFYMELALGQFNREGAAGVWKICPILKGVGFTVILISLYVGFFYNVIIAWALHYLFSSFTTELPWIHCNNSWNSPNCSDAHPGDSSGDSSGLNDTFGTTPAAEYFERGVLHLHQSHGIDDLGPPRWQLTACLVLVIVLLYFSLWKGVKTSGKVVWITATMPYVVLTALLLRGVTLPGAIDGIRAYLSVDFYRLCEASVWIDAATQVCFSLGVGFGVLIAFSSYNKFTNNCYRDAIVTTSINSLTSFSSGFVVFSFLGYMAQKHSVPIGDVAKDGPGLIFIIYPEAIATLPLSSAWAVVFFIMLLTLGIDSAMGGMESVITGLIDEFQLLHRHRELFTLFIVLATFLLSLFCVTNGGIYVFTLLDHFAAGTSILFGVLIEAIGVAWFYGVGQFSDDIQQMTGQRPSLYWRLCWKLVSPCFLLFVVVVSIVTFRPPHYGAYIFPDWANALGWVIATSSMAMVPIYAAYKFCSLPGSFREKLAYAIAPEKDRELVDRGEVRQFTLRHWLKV

Compound | releasing efficacy at hDAT
CCCC(C(=O)c1ccc2c(c1)CCCC2)N1CCCC1 (stereo not drawn) [TH-PVP, 3’,4’-tetramethylene-α-pyrrolidinovalerophenone] | minimal to no releasing efficacy
CCCC(C(=O)c1ccc(Cl)cc1)N1CCCC1 (stereo not drawn) [4-Cl-α-PVP, 4’-chloro-α–pyrrolidinopentiophenone] | minimal to no releasing efficacy
CCNC(C)C(=O)c1ccc(Cl)cc1 (stereo not drawn) [4-CEC, 4-Cl-ethcathinone] | minimal releasing efficacy

same assay, conditions: relative to maximal AUC induced by METH (1 or 10 μM)

Compound | % maximum release ± sem, hDAT [3H]DA [%]
CCCC(C(=O)c1ccc2c(c1)CCCC2)N1CCCC1 (stereo not drawn) [TH-PVP, 3’,4’-tetramethylene-α-pyrrolidinovalerophenone] | <1
CCCC(C(=O)c1ccc(Cl)cc1)N1CCCC1 (stereo not drawn) [4-Cl-α-PVP, 4’-chloro-α–pyrrolidinopentiophenone] | <1
CNC(C)C(=O)c1ccccc1 (stereo not drawn) [MCAT, methcathinone, reference compound] | 79.0 ± 3.2
CCNC(C)C(=O)c1ccc(Cl)cc1 (stereo not drawn) [4-CEC, 4-Cl-ethcathinone] | 1.17 ± 0.05
CNC(C)Cc1ccc2ccoc2c1 (stereo not drawn) [6-MAPB, N,α-dimethyl-6-benzofuranethanamine] | 40.6 ± 8.7
CC(N)Cc1ccc2ccoc2c1 (stereo not drawn) [6-APB, α-methyl-6-benzofuranethanamine] | 68.2 ± 9.0
CCCC(NCC)C(=O)c1ccc2c(c1)OCO2 (stereo not drawn) [N-Et pentylone, N-ethyl pentylone] | <1
CC(C(=O)c1ccc2c(c1)OCO2)N(C)C (stereo not drawn) [Dimethylone, bk-MDDMA] | <1

molecular target: T2, hNET (Homo sapiens, UniProt P23975); experiment: biochemical; format: binding; conditions: not given
T2 sequence (P23975 whole entry): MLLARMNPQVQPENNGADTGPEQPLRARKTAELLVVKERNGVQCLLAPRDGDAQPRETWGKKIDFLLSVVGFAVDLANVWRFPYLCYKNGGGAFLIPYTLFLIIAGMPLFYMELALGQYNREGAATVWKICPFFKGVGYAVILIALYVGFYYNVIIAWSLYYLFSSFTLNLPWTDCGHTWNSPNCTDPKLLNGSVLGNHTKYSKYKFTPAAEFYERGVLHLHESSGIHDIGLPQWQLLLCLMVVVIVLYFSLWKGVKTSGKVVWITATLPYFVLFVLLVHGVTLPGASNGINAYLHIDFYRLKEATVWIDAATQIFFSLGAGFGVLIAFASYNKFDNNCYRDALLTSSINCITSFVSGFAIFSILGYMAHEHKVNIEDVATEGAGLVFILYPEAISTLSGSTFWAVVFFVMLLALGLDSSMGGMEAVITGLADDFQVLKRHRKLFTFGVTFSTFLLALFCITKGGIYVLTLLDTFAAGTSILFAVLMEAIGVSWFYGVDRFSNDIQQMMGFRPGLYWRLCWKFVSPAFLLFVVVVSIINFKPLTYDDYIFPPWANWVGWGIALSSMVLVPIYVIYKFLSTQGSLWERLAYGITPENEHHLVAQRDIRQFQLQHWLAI

Compound | Ki [nM]
CCCCC(C(=O)c1ccc2c(c1)OCO2)N1CCCC1 (stereo not drawn) [3,4-MDPHP, 3,4-methylenedioxy-α–pyrrolidinohexanophenone] | 935 ± 93
CCCCCCC(C(=O)c1ccccc1)N1CCCC1 (stereo not drawn) [PV9, 1-phenyl-2-(pyrrolidin-1-yl)octan-1-one] | 468 ± 33

same assay, conditions: read-out: Inhibition of [125I]RTI-55 binding Ki ± sem, hNET; HEK-hNET membranes

Compound | Ki [nM]
CCCC(C(=O)c1ccc2c(c1)CCCC2)N1CCCC1 (stereo not drawn) [TH-PVP, 3’,4’-tetramethylene-α-pyrrolidinovalerophenone] | 6950 ± 340
CCCC(C(=O)c1ccc(Cl)cc1)N1CCCC1 (stereo not drawn) [4-Cl-α-PVP, 4’-chloro-α–pyrrolidinopentiophenone] | 281 ± 16
CNC(C)C(=O)c1ccccc1 (stereo not drawn) [MCAT, methcathinone, reference compound] | 5960 ± 610
CCNC(C)C(=O)c1ccc(Cl)cc1 (stereo not drawn) [4-CEC, 4-Cl-ethcathinone] | 16300 ± 5700
CNC(C)Cc1ccc2ccoc2c1 (stereo not drawn) [6-MAPB, N,α-dimethyl-6-benzofuranethanamine] | 1480 ± 270
CC(N)Cc1ccc2ccoc2c1 (stereo not drawn) [6-APB, α-methyl-6-benzofuranethanamine] | 2450 ± 200
CCCC(NCC)C(=O)c1ccc2c(c1)OCO2 (stereo not drawn) [N-Et pentylone, N-ethyl pentylone] | 2380 ± 620
CC(C(=O)c1ccc2c(c1)OCO2)N(C)C (stereo not drawn) [Dimethylone, bk-MDDMA] | > 10000

molecular target: T2, hNET; experiment: cell-based; conditions: not given

Compound | IC50 [nM]
CCCCC(C(=O)c1ccc2c(c1)OCO2)N1CCCC1 (stereo not drawn) [3,4-MDPHP, 3,4-methylenedioxy-α–pyrrolidinohexanophenone] | 47 ± 10

same assay, conditions: read-out: Inhibition of [3H]neurotransmitter uptake IC50 ± sem, hNET [3H]NE; HEK-hNET cells

Compound | IC50 [nM]
CCCC(C(=O)c1ccc2c(c1)CCCC2)N1CCCC1 (stereo not drawn) [TH-PVP, 3’,4’-tetramethylene-α-pyrrolidinovalerophenone] | 2130 ± 81
CCCC(C(=O)c1ccc(Cl)cc1)N1CCCC1 (stereo not drawn) [4-Cl-α-PVP, 4’-chloro-α–pyrrolidinopentiophenone] | 29.1 ± 6.7
CNC(C)C(=O)c1ccccc1 (stereo not drawn) [MCAT, methcathinone, reference compound] | 45.2 ± 4.2
CCNC(C)C(=O)c1ccc(Cl)cc1 (stereo not drawn) [4-CEC, 4-Cl-ethcathinone] | 1720 ± 240
CNC(C)Cc1ccc2ccoc2c1 (stereo not drawn) [6-MAPB, N,α-dimethyl-6-benzofuranethanamine] | 33.1 ± 2
CC(N)Cc1ccc2ccoc2c1 (stereo not drawn) [6-APB, α-methyl-6-benzofuranethanamine] | 19.8 ± 4.4
CCCC(NCC)C(=O)c1ccc2c(c1)OCO2 (stereo not drawn) [N-Et pentylone, N-ethyl pentylone] | 114 ± 29
CC(C(=O)c1ccc2c(c1)OCO2)N(C)C (stereo not drawn) [Dimethylone, bk-MDDMA] | 4200 ± 880

molecular target: T1, hDAT; experiment: Inhibition of [3H]DA uptake by HEK-hDAT cells; format: cell-based; conditions: not given

Compound | IC50 [nM]
CCCCC(C(=O)c1ccc2c(c1)OCO2)N1CCCC1 (stereo not drawn) [3,4-MDPHP, 3,4-methylenedioxy-α–pyrrolidinohexanophenone] | 8.4 ± 2.2
CCCCCCC(C(=O)c1ccccc1)N1CCCC1 (stereo not drawn) [PV9, 1-phenyl-2-(pyrrolidin-1-yl)octan-1-one] | 50.2 ± 6.6

same assay, conditions: 1/(DAT IC50) divided by 1/(SERT IC50), uptake; higher = more DAT selective

Compound | Ratio DAT/SERT
CCCC(C(=O)c1ccc2c(c1)CCCC2)N1CCCC1 (stereo not drawn) [TH-PVP, 3’,4’-tetramethylene-α-pyrrolidinovalerophenone] | 0.087
CCCCC(C(=O)c1ccc2c(c1)OCO2)N1CCCC1 (stereo not drawn) [3,4-MDPHP, 3,4-methylenedioxy-α–pyrrolidinohexanophenone] | 160
CCCC(C(=O)c1ccc(Cl)cc1)N1CCCC1 (stereo not drawn) [4-Cl-α-PVP, 4’-chloro-α–pyrrolidinopentiophenone] | 83
CNC(C)C(=O)c1ccccc1 (stereo not drawn) [MCAT, methcathinone, reference compound] | 130
CCNC(C)C(=O)c1ccc(Cl)cc1 (stereo not drawn) [4-CEC, 4-Cl-ethcathinone] | 0.39
CNC(C)Cc1ccc2ccoc2c1 (stereo not drawn) [6-MAPB, N,α-dimethyl-6-benzofuranethanamine] | 9.5
CC(N)Cc1ccc2ccoc2c1 (stereo not drawn) [6-APB, α-methyl-6-benzofuranethanamine] | 2.4
CCCCCCC(C(=O)c1ccccc1)N1CCCC1 (stereo not drawn) [PV9, 1-phenyl-2-(pyrrolidin-1-yl)octan-1-one] | >150
CCCC(NCC)C(=O)c1ccc2c(c1)OCO2 (stereo not drawn) [N-Et pentylone, N-ethyl pentylone] | 8.4
CC(C(=O)c1ccc2c(c1)OCO2)N(C)C (stereo not drawn) [Dimethylone, bk-MDDMA] | >4.1

same assay, conditions: compared to pentylone

Compound | fold increase in hDAT/hSERT selectivity
CCCC(NCC)C(=O)c1ccc2c(c1)OCO2 (stereo not drawn) [N-Et pentylone, N-ethyl pentylone] | ~ 2 fold

molecular target: T3, hSERT (Homo sapiens, UniProt P31645); experiment: Inhibition of [3H]5-HT uptake by HEK-hSERT cells; format: cell-based; conditions: not given
T3 sequence (P31645 whole entry): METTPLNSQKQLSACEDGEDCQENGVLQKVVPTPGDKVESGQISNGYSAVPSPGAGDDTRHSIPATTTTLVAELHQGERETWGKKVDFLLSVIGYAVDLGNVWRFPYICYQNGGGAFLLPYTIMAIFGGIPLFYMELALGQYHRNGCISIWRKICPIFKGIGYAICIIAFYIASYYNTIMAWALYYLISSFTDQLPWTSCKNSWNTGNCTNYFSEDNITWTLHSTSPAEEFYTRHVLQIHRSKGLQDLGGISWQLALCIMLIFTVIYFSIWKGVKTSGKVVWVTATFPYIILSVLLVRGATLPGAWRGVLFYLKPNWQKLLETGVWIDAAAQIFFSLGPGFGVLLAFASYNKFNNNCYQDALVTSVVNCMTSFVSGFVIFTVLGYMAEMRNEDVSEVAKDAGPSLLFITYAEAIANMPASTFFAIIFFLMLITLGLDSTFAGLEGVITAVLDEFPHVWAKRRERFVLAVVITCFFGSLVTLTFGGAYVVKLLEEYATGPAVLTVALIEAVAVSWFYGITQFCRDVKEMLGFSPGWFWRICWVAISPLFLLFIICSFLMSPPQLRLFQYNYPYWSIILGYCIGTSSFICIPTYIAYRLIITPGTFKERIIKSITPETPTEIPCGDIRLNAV

Compound | IC50 [nM]
CCCCC(C(=O)c1ccc2c(c1)OCO2)N1CCCC1 (stereo not drawn) [3,4-MDPHP, 3,4-methylenedioxy-α–pyrrolidinohexanophenone] | 1340 ± 410
CCCCCCC(C(=O)c1ccccc1)N1CCCC1 (stereo not drawn) [PV9, 1-phenyl-2-(pyrrolidin-1-yl)octan-1-one] | > 7400

same assay, conditions: uptake inhibition potencies

Compound | selectivity for SERT over DAT (uptake potency) [fold]
CCCC(C(=O)c1ccc2c(c1)CCCC2)N1CCCC1 (stereo not drawn) [TH-PVP, 3’,4’-tetramethylene-α-pyrrolidinovalerophenone] | 12
CCNC(C)C(=O)c1ccc(Cl)cc1 (stereo not drawn) [4-CEC, 4-Cl-ethcathinone] | 3

molecular target: T3, hSERT; experiment: Inhibition of [125I]RTI-55 binding, HEK-hSERT membranes; conditions: not given

Compound | Ki [nM]
CCCCC(C(=O)c1ccc2c(c1)OCO2)N1CCCC1 (stereo not drawn) [3,4-MDPHP, 3,4-methylenedioxy-α–pyrrolidinohexanophenone] | 2430 ± 510
CCCCCCC(C(=O)c1ccccc1)N1CCCC1 (stereo not drawn) [PV9, 1-phenyl-2-(pyrrolidin-1-yl)octan-1-one] | 2860 ± 430

molecular target: T2, hNET; experiment: Drug-induced release of preloaded [3H]NE from HEK-hNET cells; format: cell-based; conditions: [3H]NE release

Compound | releasing efficacy at hNET
CCCC(C(=O)c1ccc2c(c1)CCCC2)N1CCCC1 (stereo not drawn) [TH-PVP, 3’,4’-tetramethylene-α-pyrrolidinovalerophenone] | minimal to no releasing efficacy
CCCC(C(=O)c1ccc(Cl)cc1)N1CCCC1 (stereo not drawn) [4-Cl-α-PVP, 4’-chloro-α–pyrrolidinopentiophenone] | minimal to no releasing efficacy
CCNC(C)C(=O)c1ccc(Cl)cc1 (stereo not drawn) [4-CEC, 4-Cl-ethcathinone] | minimal releasing efficacy

same assay, conditions: read-out: Drug-induced release of [3H]neurotransmitter EC50 ± sem, hNET [3H]NE; HEK-hNET cells

Compound | EC50 [nM]
CCCC(C(=O)c1ccc2c(c1)CCCC2)N1CCCC1 (stereo not drawn) [TH-PVP, 3’,4’-tetramethylene-α-pyrrolidinovalerophenone] | > 10000
CCCC(C(=O)c1ccc(Cl)cc1)N1CCCC1 (stereo not drawn) [4-Cl-α-PVP, 4’-chloro-α–pyrrolidinopentiophenone] | > 10000
CNC(C)C(=O)c1ccccc1 (stereo not drawn) [MCAT, methcathinone, reference compound] | 400 ± 120
CCNC(C)C(=O)c1ccc(Cl)cc1 (stereo not drawn) [4-CEC, 4-Cl-ethcathinone] | > 100000
CNC(C)Cc1ccc2ccoc2c1 (stereo not drawn) [6-MAPB, N,α-dimethyl-6-benzofuranethanamine] | 640 ± 210
CC(N)Cc1ccc2ccoc2c1 (stereo not drawn) [6-APB, α-methyl-6-benzofuranethanamine] | 51 ± 12
CC(C(=O)c1ccc2c(c1)OCO2)N(C)C (stereo not drawn) [Dimethylone, bk-MDDMA] | > 10000

same assay, conditions: relative to maximal AUC induced by METH (0.3 or 1 μM)

Compound | % maximum release ± sem, hNET [3H]NE [%]
CCCC(C(=O)c1ccc2c(c1)CCCC2)N1CCCC1 (stereo not drawn) [TH-PVP, 3’,4’-tetramethylene-α-pyrrolidinovalerophenone] | <1
CCCC(C(=O)c1ccc(Cl)cc1)N1CCCC1 (stereo not drawn) [4-Cl-α-PVP, 4’-chloro-α–pyrrolidinopentiophenone] | 9.4 ± 6.0
CNC(C)C(=O)c1ccccc1 (stereo not drawn) [MCAT, methcathinone, reference compound] | 75 ± 10
CCNC(C)C(=O)c1ccc(Cl)cc1 (stereo not drawn) [4-CEC, 4-Cl-ethcathinone] | 5.9 ± 2.5
CNC(C)Cc1ccc2ccoc2c1 (stereo not drawn) [6-MAPB, N,α-dimethyl-6-benzofuranethanamine] | 60 ± 11
CC(N)Cc1ccc2ccoc2c1 (stereo not drawn) [6-APB, α-methyl-6-benzofuranethanamine] | 69 ± 12
CCCC(NCC)C(=O)c1ccc2c(c1)OCO2 (stereo not drawn) [N-Et pentylone, N-ethyl pentylone] | 15.6 ± 8.4
CC(C(=O)c1ccc2c(c1)OCO2)N(C)C (stereo not drawn) [Dimethylone, bk-MDDMA] | 9.9 ± 2.2

molecular target: T1, hDAT; experiment: Inhibition of [125I]RTI-55 binding, HEK-hDAT membranes; conditions: not given

Compound | Ki [nM]
CCCCC(C(=O)c1ccc2c(c1)OCO2)N1CCCC1 (stereo not drawn) [3,4-MDPHP, 3,4-methylenedioxy-α–pyrrolidinohexanophenone] | 19.2 ± 5.1
CCCCCCC(C(=O)c1ccccc1)N1CCCC1 (stereo not drawn) [PV9, 1-phenyl-2-(pyrrolidin-1-yl)octan-1-one] | 18 ± 3.7

same assay, conditions: read-out: Inhibition of [125I]RTI-55 binding Ki ± sem, hDAT; HEK-hDAT membranes

Compound | Ki [nM]
CCCC(C(=O)c1ccc2c(c1)CCCC2)N1CCCC1 (stereo not drawn) [TH-PVP, 3’,4’-tetramethylene-α-pyrrolidinovalerophenone] | 3090 ± 300
CCCC(C(=O)c1ccc(Cl)cc1)N1CCCC1 (stereo not drawn) [4-Cl-α-PVP, 4’-chloro-α–pyrrolidinopentiophenone] | 61 ± 15
CNC(C)C(=O)c1ccccc1 (stereo not drawn) [MCAT, methcathinone, reference compound] | 7520 ± 990
CCNC(C)C(=O)c1ccc(Cl)cc1 (stereo not drawn) [4-CEC, 4-Cl-ethcathinone] | 4170 ± 530
CNC(C)Cc1ccc2ccoc2c1 (stereo not drawn) [6-MAPB, N,α-dimethyl-6-benzofuranethanamine] | 599 ± 9.9
CC(N)Cc1ccc2ccoc2c1 (stereo not drawn) [6-APB, α-methyl-6-benzofuranethanamine] | 1040 ± 160
CCCC(NCC)C(=O)c1ccc2c(c1)OCO2 (stereo not drawn) [N-Et pentylone, N-ethyl pentylone] | 102 ± 15
CC(C(=O)c1ccc2c(c1)OCO2)N(C)C (stereo not drawn) [Dimethylone, bk-MDDMA] | 4210 ± 270

molecular target: T3, hSERT; experiment: Drug-induced release of preloaded [3H]5-HT from HEK-hSERT cells; format: cell-based; conditions: [3H]5-HT release

Compound | releasing efficacy at hSERT
CCCC(C(=O)c1ccc2c(c1)CCCC2)N1CCCC1 (stereo not drawn) [TH-PVP, 3’,4’-tetramethylene-α-pyrrolidinovalerophenone] | minimal to no releasing efficacy
CCCC(C(=O)c1ccc(Cl)cc1)N1CCCC1 (stereo not drawn) [4-Cl-α-PVP, 4’-chloro-α–pyrrolidinopentiophenone] | minimal to no releasing efficacy
CCNC(C)C(=O)c1ccc(Cl)cc1 (stereo not drawn) [4-CEC, 4-Cl-ethcathinone] | full releasing efficacy
CNC(C)Cc1ccc2ccoc2c1 (stereo not drawn) [6-MAPB, N,α-dimethyl-6-benzofuranethanamine] | fully efficacious
CC(N)Cc1ccc2ccoc2c1 (stereo not drawn) [6-APB, α-methyl-6-benzofuranethanamine] | fully efficacious releaser

same assay, conditions: compared to release potency at NET and DAT

Compound | fold lower release potency at SERT [fold]
CNC(C)C(=O)c1ccccc1 (stereo not drawn) [MCAT, methcathinone, reference compound] | 50

same assay, conditions: relative to maximal AUC induced by METH (0.3–1 mM)

Compound | % maximum release ± sem, hSERT [3H]5-HT [%]
CCCC(C(=O)c1ccc2c(c1)CCCC2)N1CCCC1 (stereo not drawn) [TH-PVP, 3’,4’-tetramethylene-α-pyrrolidinovalerophenone] | <1
CCCC(C(=O)c1ccc(Cl)cc1)N1CCCC1 (stereo not drawn) [4-Cl-α-PVP, 4’-chloro-α–pyrrolidinopentiophenone] | <1
CNC(C)C(=O)c1ccccc1 (stereo not drawn) [MCAT, methcathinone, reference compound] | 65.0 ± 0.6
CNC(C)Cc1ccc2ccoc2c1 (stereo not drawn) [6-MAPB, N,α-dimethyl-6-benzofuranethanamine] | 107.0 ± 2.3
CC(N)Cc1ccc2ccoc2c1 (stereo not drawn) [6-APB, α-methyl-6-benzofuranethanamine] | 119 ± 16
CCCC(NCC)C(=O)c1ccc2c(c1)OCO2 (stereo not drawn) [N-Et pentylone, N-ethyl pentylone] | 7.2 ± 1.4
CC(C(=O)c1ccc2c(c1)OCO2)N(C)C (stereo not drawn) [Dimethylone, bk-MDDMA] | <1
